Assay results reported in the NIST ThermoML archive (doi:10.1016/j.fluid.2011.12.029).

Settings: Liquid, Vibrating tube method

CCCC[n+]1ccccc1.F[B-](F)(F)F [1-butylpyridinium tetrafluoroborate]
Settings	mass density [kg/m3]
283.15 K, 100 kPa	1225.36
283.15 K, 5000 kPa	1227.5
283.15 K, 10000 kPa	1229.65
283.15 K, 15000 kPa	1231.84
283.15 K, 20000 kPa	1233.82
283.15 K, 25000 kPa	1235.92
283.15 K, 30000 kPa	1237.85
283.15 K, 35000 kPa	1239.79
283.15 K, 40000 kPa	1241.64
283.15 K, 45000 kPa	1243.52
283.15 K, 50000 kPa	1245.28
283.15 K, 55000 kPa	1247
283.15 K, 60000 kPa	1248.71
283.15 K, 65000 kPa	1250.41
288.15 K, 100 kPa	1221.64
288.15 K, 5000 kPa	1223.77
288.15 K, 10000 kPa	1225.95
288.15 K, 15000 kPa	1228.23
288.15 K, 20000 kPa	1230.2
288.15 K, 25000 kPa	1232.3
288.15 K, 30000 kPa	1234.24
288.15 K, 35000 kPa	1236.23
288.15 K, 40000 kPa	1238.24
288.15 K, 45000 kPa	1240.13
288.15 K, 50000 kPa	1241.78
288.15 K, 55000 kPa	1243.6
288.15 K, 60000 kPa	1245.23
288.15 K, 65000 kPa	1247.03
293.15 K, 100 kPa	1218.02
293.15 K, 5000 kPa	1220.21
293.15 K, 10000 kPa	1222.35
293.15 K, 15000 kPa	1224.51
293.15 K, 20000 kPa	1226.68
293.15 K, 25000 kPa	1228.73
293.15 K, 30000 kPa	1230.74
293.15 K, 35000 kPa	1232.84
293.15 K, 40000 kPa	1234.73
293.15 K, 45000 kPa	1236.53
293.15 K, 50000 kPa	1238.41
293.15 K, 55000 kPa	1240.31
293.15 K, 60000 kPa	1241.96
293.15 K, 65000 kPa	1243.85
298.15 K, 100 kPa	1214.34
298.15 K, 5000 kPa	1216.62
298.15 K, 10000 kPa	1218.93
298.15 K, 15000 kPa	1221.01
298.15 K, 20000 kPa	1223.33
298.15 K, 25000 kPa	1225.43
298.15 K, 30000 kPa	1227.48
298.15 K, 35000 kPa	1229.43
298.15 K, 40000 kPa	1231.45
298.15 K, 45000 kPa	1233.36
298.15 K, 50000 kPa	1235.32
298.15 K, 55000 kPa	1237.1
298.15 K, 60000 kPa	1238.81
298.15 K, 65000 kPa	1240.44
303.15 K, 100 kPa	1210.91
303.15 K, 5000 kPa	1213.26
303.15 K, 10000 kPa	1215.59
303.15 K, 15000 kPa	1217.74
303.15 K, 20000 kPa	1219.92
303.15 K, 25000 kPa	1222.02
303.15 K, 30000 kPa	1224.11
303.15 K, 35000 kPa	1226.12
303.15 K, 40000 kPa	1228.08
303.15 K, 45000 kPa	1229.97
303.15 K, 50000 kPa	1231.94
303.15 K, 55000 kPa	1233.82
303.15 K, 60000 kPa	1235.58
303.15 K, 65000 kPa	1237.3
308.15 K, 100 kPa	1207.32
308.15 K, 5000 kPa	1209.57
308.15 K, 10000 kPa	1211.82
308.15 K, 15000 kPa	1214.09
308.15 K, 20000 kPa	1216.23
308.15 K, 25000 kPa	1218.48
308.15 K, 30000 kPa	1220.54
308.15 K, 35000 kPa	1222.62
308.15 K, 40000 kPa	1224.5
308.15 K, 45000 kPa	1226.48
308.15 K, 50000 kPa	1228.36
308.15 K, 55000 kPa	1230.34
308.15 K, 60000 kPa	1232.17
308.15 K, 65000 kPa	1234.06
313.15 K, 100 kPa	1203.87
313.15 K, 5000 kPa	1206.23
313.15 K, 10000 kPa	1208.56
313.15 K, 15000 kPa	1210.88
313.15 K, 20000 kPa	1213.11
313.15 K, 25000 kPa	1215.28
313.15 K, 30000 kPa	1217.47
313.15 K, 35000 kPa	1219.51
313.15 K, 40000 kPa	1221.56
313.15 K, 45000 kPa	1223.48
313.15 K, 50000 kPa	1225.54
313.15 K, 55000 kPa	1227.32
313.15 K, 60000 kPa	1229.18
313.15 K, 65000 kPa	1231.01
318.15 K, 100 kPa	1200.36
318.15 K, 5000 kPa	1202.66
318.15 K, 10000 kPa	1205.15
318.15 K, 15000 kPa	1207.31
318.15 K, 20000 kPa	1209.58
318.15 K, 25000 kPa	1211.7
318.15 K, 30000 kPa	1213.85
318.15 K, 35000 kPa	1216.03
318.15 K, 40000 kPa	1218.05
318.15 K, 45000 kPa	1220.04
318.15 K, 50000 kPa	1222.02
318.15 K, 55000 kPa	1223.9
318.15 K, 60000 kPa	1225.83
318.15 K, 65000 kPa	1227.74
323.15 K, 100 kPa	1196.96
323.15 K, 5000 kPa	1199.29
323.15 K, 10000 kPa	1201.77
323.15 K, 15000 kPa	1204.12
323.15 K, 20000 kPa	1206.47
323.15 K, 25000 kPa	1208.68
323.15 K, 30000 kPa	1210.86
323.15 K, 35000 kPa	1212.95
323.15 K, 40000 kPa	1215.03
323.15 K, 45000 kPa	1217
323.15 K, 50000 kPa	1218.98
323.15 K, 55000 kPa	1220.89
323.15 K, 60000 kPa	1222.84
323.15 K, 65000 kPa	1224.65
328.15 K, 100 kPa	1193.36
328.15 K, 5000 kPa	1195.72
328.15 K, 10000 kPa	1198.11
328.15 K, 15000 kPa	1200.54
328.15 K, 20000 kPa	1202.82
328.15 K, 25000 kPa	1205.08
328.15 K, 30000 kPa	1207.36
328.15 K, 35000 kPa	1209.57
328.15 K, 40000 kPa	1211.63
328.15 K, 45000 kPa	1213.66
328.15 K, 50000 kPa	1215.6
328.15 K, 55000 kPa	1217.56
328.15 K, 60000 kPa	1219.5
328.15 K, 65000 kPa	1221.56
333.15 K, 100 kPa	1190.07
333.15 K, 5000 kPa	1192.59
333.15 K, 10000 kPa	1195
333.15 K, 15000 kPa	1197.4
333.15 K, 20000 kPa	1199.91
333.15 K, 25000 kPa	1202.04
333.15 K, 30000 kPa	1204.36
333.15 K, 35000 kPa	1206.49
333.15 K, 40000 kPa	1208.69
333.15 K, 45000 kPa	1210.67
333.15 K, 50000 kPa	1212.88
333.15 K, 55000 kPa	1214.74
333.15 K, 60000 kPa	1216.56
333.15 K, 65000 kPa	1218.57
